From patent US10829473B2, “Modulators of the cystic fibrosis transmembrane conductance regulator protein and methods of use” (AbbVie Overseas S.Á.R.L., priority 2017, dated 2020)
Like-named read-outs stand apart in the source and are kept apart here. Marks after values point to notes of the source that are not given here.

Biological target: T1, F508delCFTR (Homo sapiens, UniProt P13569, DEL508-508)
T1 construct: expressed in transfected cells; host or cells: CFBE41o- human lung derived epithelial cells (CFBE41o-F508delCFTR-HRP), doxycycline-inducible
Test: Cell Surface Expression-Horse Radish Peroxidase (CSE-HRP) Assay;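 on EC50 (with co-corrector): co-corrector chromenyl benzoic acid corrector at 2 or 3 µM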
Format: cell-based
Details: for Maximum % activity (with co-corrector) / Emax: maximum at any tested concentration; for Emax: read-out: Maximum % activity (without co-corrector)
Experimental: A cellular assay for measuring the F508delCFTR cell surface expression after correction with test compounds either without or with a co-corrector (2 μM of 3-[(2R,4R)-4-({[1-(2,2-difluoro-1,3-benzodioxol-5-yl)cyclopropyl]carbonyl}amino)-7-methoxy-3,4-dihydro-2H-chromen-2-yl]benzoic acid), was developed in human lung derived epithelial cell line (CFBE4lo−) (Veit G et al, (2012) Mol Biol Cell. 23(21): 4188-4202). The development was achieved by expressing the F508delCFTR mutation along with a horseradish peroxidase (HRP) in the fourth exofacial loop, and then measuring the HRP activity using luminescence readout from these cells, CFBE410-F508delCFTR-HRP, that were incubated overnight with the test corrector compounds, either without or with the co-corrector. For this primary assay, the CFBE410-F508delCFTR-HRP cells were plated in 384-well plates (Greiner Bio-one; Cat 781080) at 4,000 cells/well along with 0.5 μg/mL doxycycline to induce the F508delCFTR-HRP expression and further incubated at 37° C., 5% CO2 for 68-72 hours. The test compounds were then added either without or with a co-corrector at the required concentrations and further incubated for 18-24 hours at 33° C. The highest concentration tested was 20 μM or 30 μM (GI-1 to GIII-36) with an 8-point concentration response curve using a 3-fold dilution in both the test compound without or with the co-corrector. Three replicate plates were run to determine one EC50. All plates contained negative controls (dimethyl sulfoxide, DMSO) and positive control (2 μM or 3 μM (GI-1 to GIII-36) of 3-[(2R,4R)-4-({[1-(2,2-difluoro-1,3-benzodioxol-5-yl)cyclopropyl]carbonyl}amino)-7-methoxy-3,4-dihydro-2H-chromen-2-yl]benzoic acid) as well as on-plate concentration response of the positive control. Post incubation, the plates were washed 5× times with Dulbecco's phosphate buffered saline (DPBS), followed by the addition of the HRP substrate, luminol (50 4), and measuring the HRP activity using luminescence readout on EnVision® Multilabel Plate Reader (Perkin Elmer; product number 2104-0010). The raw counts from the experiment were analyzed using Accelrys® Assay Explorer v3.3.
Z′ greater than 0.5 was used as passing quality control criteria for the plates.
The Z′ is defined as: 1−[3*SDPositve Control+3*SDNegative Control/Absolute(MeanPositive Control−MeanNegative Control)] wherein “SD” is standard deviation.
The % activity measured at each of the 8 test concentrations of the test compound added either without or with a co-corrector (2 μM or 3 μM (GI-1 to GIII-36) of 3-[(2R,4R)-4-({[1-(2,2-difluoro-1,3-benzodioxol-5-yl)cyclopropyl]carbonyl}amino)-7-methoxy-3,4-dihydro-2H-chromen-2-yl]benzoic acid) was normalized to the on-plate positive control using the following formulae: % activity (Test compound without co-corrector)=[(test compound without co-corrector response DMSO response)/(positive control response DMSO response)]*100 % activity (Test compound with co-corrector)=[(test compound with co-corrector response DMSO response)/(positive control response DMSO response)]*100
The maximum % activity achieved for the test compound either without or with a co-corrector at any tested concentration is presented in Table 6 along with the respective EC50's calculated using the following general sigmoidal curve with variable Hill slope equation (described as Model 42 in the Accelrys® Assay Explorer v3.3 software): y=(a−d)/(1+(x/c)b)+d
General sigmoidal curve with concentration, response, top, bottom, EC50 and Hill slope. This model describes a sigmoidal curve with an adjustable baseline, a. The equation can be used to fit curves where response is either increasing or decreasing with respect to the independent variable, “x”.
“x” is a concentration of drug under test.
“a” is the maximum response, and “d” is the minimum response
“c” is the inflection point (EGO for the curve. That is, “y” is halfway between the lower and upper asymptotes when x=c.
“b” is the slope-factor or Hill coefficient. […]

[1] = test compound with co-corrector
[2] = test compound with co-corrector, read-out: EC50 (with co-corrector)
[3] = test compound without co-corrector
[4] = test compound without co-corrector, read-out: EC50 (without co-corrector)
[5] = test compound alone, without co-corrector, read-out: EC50 (without co-corrector)
[6] = with co-corrector, read-out: EC50 (with co-corrector)

T1 sequence (P13569 with tags, fused parts or gaps DEL508-508): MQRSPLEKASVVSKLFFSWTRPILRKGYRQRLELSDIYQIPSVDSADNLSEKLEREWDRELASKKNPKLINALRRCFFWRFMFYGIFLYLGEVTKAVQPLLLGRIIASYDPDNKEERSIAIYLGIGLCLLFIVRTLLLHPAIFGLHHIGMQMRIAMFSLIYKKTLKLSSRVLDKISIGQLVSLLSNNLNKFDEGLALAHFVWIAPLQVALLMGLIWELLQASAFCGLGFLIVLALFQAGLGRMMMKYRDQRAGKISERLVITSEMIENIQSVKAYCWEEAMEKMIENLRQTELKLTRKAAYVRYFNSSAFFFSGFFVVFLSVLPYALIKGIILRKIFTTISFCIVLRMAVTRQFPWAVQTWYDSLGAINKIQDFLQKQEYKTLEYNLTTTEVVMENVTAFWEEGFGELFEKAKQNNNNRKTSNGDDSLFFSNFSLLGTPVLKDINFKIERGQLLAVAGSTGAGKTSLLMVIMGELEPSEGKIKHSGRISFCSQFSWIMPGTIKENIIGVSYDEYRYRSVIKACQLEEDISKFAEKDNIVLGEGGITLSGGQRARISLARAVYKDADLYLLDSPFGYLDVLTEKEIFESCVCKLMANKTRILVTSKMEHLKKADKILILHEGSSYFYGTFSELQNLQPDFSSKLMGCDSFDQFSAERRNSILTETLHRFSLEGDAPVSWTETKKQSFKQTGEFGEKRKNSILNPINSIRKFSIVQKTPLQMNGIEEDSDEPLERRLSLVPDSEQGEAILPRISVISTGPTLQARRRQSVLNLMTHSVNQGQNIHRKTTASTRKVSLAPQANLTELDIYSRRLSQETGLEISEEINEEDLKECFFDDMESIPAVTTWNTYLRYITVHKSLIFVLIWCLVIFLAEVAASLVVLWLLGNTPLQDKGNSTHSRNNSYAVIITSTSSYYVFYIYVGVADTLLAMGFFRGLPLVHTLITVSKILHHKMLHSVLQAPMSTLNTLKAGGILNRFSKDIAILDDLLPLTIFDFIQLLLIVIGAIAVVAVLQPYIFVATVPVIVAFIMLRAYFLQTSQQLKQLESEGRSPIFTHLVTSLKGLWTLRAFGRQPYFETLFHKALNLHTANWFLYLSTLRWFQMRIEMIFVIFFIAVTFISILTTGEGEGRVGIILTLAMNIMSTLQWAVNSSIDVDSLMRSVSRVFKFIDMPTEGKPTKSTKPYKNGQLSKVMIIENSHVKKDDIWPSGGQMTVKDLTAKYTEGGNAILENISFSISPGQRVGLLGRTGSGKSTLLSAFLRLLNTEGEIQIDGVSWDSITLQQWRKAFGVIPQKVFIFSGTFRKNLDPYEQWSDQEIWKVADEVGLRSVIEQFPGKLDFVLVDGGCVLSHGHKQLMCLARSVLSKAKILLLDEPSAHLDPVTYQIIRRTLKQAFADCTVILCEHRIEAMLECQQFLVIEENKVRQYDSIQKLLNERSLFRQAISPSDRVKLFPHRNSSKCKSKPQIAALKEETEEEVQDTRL

Row | SMILES | Maximum % activity (with co-corrector) [1] | EC50 [2] | EC50 (without co-corrector) [3] | Emax [3] | EC50 [4] | EC50 [5] | Maximum % activity (with co-corrector) (with co-corrector) | EC50 [6] | Emax (without co-corrector)
1 | COCCOc1ncc(C2CCC2)cc1C1(C(=O)NS(=O)(=O)c2cccc3ncccc23)CC1 [Example GI-111, 1-[5-cyclobutyl-2-(2-methoxyethoxy)pyridin-3-yl]-N-(quinoline-5-sulfonyl)cyclopropane-1-carboxamide] | +++ (≥350) | < 3 µM | – | > 150% | < 3 µM | – | – | – | –
2 | CCc1cnc(OCC(C)C)c(C2(C(=O)NS(=O)(=O)c3cccc4[nH]ncc34)CC2)c1 [Example I-94, 1-[5-ethyl-2-(2-methylpropoxy)pyridin-3-yl]-N-(1H-indazole-4-sulfonyl)cyclopropane-1-carboxamide] | – | – | – | – | – | < 3 µM | +++ (≥350) | < 3 µM | > 150%
3 | CCc1ccc(O[C@H](C)COC)c(C2(C(=O)NS(=O)(=O)c3cccc4ncccc34)CC2)c1 [Example I-111, 1-(5-ethyl-2-{[(2R)-1-methoxypropan-2-yl]oxy}phenyl)-N-(quinoline-5-sulfonyl)cyclopropane-1-carboxamide] | – | – | – | – | – | < 3 µM | +++ (≥350) | < 3 µM | > 150%
4 | COc1cnc(OCC(C)C)c(C2(C(=O)NS(=O)(=O)c3cccc4[nH]ccc34)CC2)c1 [Example GI-78, N-(1H-indole-4-sulfonyl)-1-[5-methoxy-2-(2-methylpropoxy)pyridin-3-yl]cyclopropane-1-carboxamide] | +++ (≥350) | < 3 µM | – | > 150% | < 3 µM | – | – | – | –
5 | CC(C)COc1ncc(C2CCC2)cc1C1(C(=O)NS(=O)(=O)c2cccc3[nH]ccc23)CC1 [Example GI-52, 1-[5-cyclobutyl-2-(2-methylpropoxy)pyridin-3-yl]-N-(1H-indole-4-sulfonyl)cyclopropane-1-carboxamide] | +++ (≥350) | < 3 µM | – | > 150% | < 3 µM | – | – | – | –
6 | CCc1ccc(OC)c(C2(C(=O)NS(=O)(=O)c3cccc4nc(N)ccc34)CC2)c1 [II-71] | – | – | – | – | – | < 3 µM | +++ (≥350) | < 3 µM | > 150%
7 | CC(C)Oc1ncc(C2CCC2)cc1C1(C(=O)NS(=O)(=O)c2cccc3ncccc23)CC1 [Example GI-22, 1-{5-cyclobutyl-2-[(propan-2-yl)oxy]pyridin-3-yl}-N-(quinoline-5-sulfonyl)cyclopropane-1-carboxamide] | – | – | – | – | – | < 3 µM | +++ (≥350) | < 3 µM | > 150%
8 | CCn1nc(C)cc1C1(C(=O)NS(=O)(=O)c2cccc3ccccc23)CC1 [II-4] | – | – | – | – | – | 3 to 10 µM | +++ (≥350) | 3 to 10 µM | 50 to 150%
9 | CCc1cnc(OCC2CC2)c(C2(C(=O)NS(=O)(=O)c3cccc4ncccc34)CC2)c1 [Example GI-106, 1-[2-(cyclopropylmethoxy)-5-ethylpyridin-3-yl]-N-(quinoline-5-sulfonyl)cyclopropane-1-carboxamide] | +++ (≥350) | < 3 µM | – | > 150% | < 3 µM | – | – | – | –
10 | CC(C)Oc1ncc(N2CCCC2)cc1C1(C(=O)NS(=O)(=O)c2cccc3ncccc23)CC1 [Example GI-62, 1-{2-[(propan-2-yl)oxy]-5-(pyrrolidin-1-yl)pyridin-3-yl}-N-(quinoline-5-sulfonyl)cyclopropane-1-carboxamide] | +++ (≥350) | < 3 µM | – | > 150% | < 3 µM | – | – | – | –
11 | COCCOc1ncc(C2CCC2)cc1C1(C(=O)NS(=O)(=O)c2cccc3[nH]ccc23)CC1 [Example GI-99, 1-[5-cyclobutyl-2-(2-methoxyethoxy)pyridin-3-yl]-N-(1H-indole-4-sulfonyl)cyclopropane-1-carboxamide] | +++ (≥350) | < 3 µM | – | > 150% | < 3 µM | – | – | – | –
12 | COc1ccc(C2CC2)cc1C1(C(=O)NS(=O)(=O)c2cccc3ncccc23)CC1 [Example I-13, 1-(5-cyclopropyl-2-methoxyphenyl)-N-(quinoline-5-sulfonyl)cyclopropane-1-carboxamide] | – | – | – | – | – | < 3 µM | – | < 3 µM | –
13 | CCOc1ncc(C2CCC2)cc1C1(C(=O)NS(=O)(=O)c2cccc3ncccc23)CC1 [Example GI-114, 1-(5-cyclobutyl-2-ethoxypyridin-3-yl)-N-(quinoline-5-sulfonyl)cyclopropane-1-carboxamide] | +++ (≥350) | < 3 µM | – | > 150% | 3 to 10 µM | – | – | – | –

Next, values leading:

Row | Maximum % activity (with co-corrector) [1] | EC50 [2] | EC50 (without co-corrector) [3] | Emax [3] | EC50 [4] | EC50 [5] | Maximum % activity (with co-corrector) (with co-corrector) | EC50 [6] | Emax (without co-corrector) | SMILES
14 | ++ (≥150 and <350) | 3 to 10 µM | ++^a | 50 to 150% | – | – | – | – | – | O=C(NS(=O)(=O)c1cccc2ncccc12)C1(c2cc(C3CCC3)cnc2N2CCOCC2)CC1 [GII-28, 1-[5-cyclobutyl-2-(morpholin-4-yl)pyridin-3-yl]-N-(quinoline-5-sulfonyl)cyclopropane-1-carboxamide]
15 | – | – | – | – | – | 3 to 10 µM | ++ (≥150 and <350) | 3 to 10 µM | < 50% | O=C(NS(=O)(=O)c1cccc(C(F)(F)F)c1)C1(c2ccc(Cl)cc2Cl)CC1 [Example III-15, 1-(2,4-dichlorophenyl)-N-[3-(trifluoromethyl)benzene-1-sulfonyl]cyclopropane-1-carboxamide]
16 | – | – | – | – | – | 3 to 10 µM | ++ (≥150 and <350) | 3 to 10 µM | < 50% | Cc1ccc(C2(C(=O)NS(=O)(=O)c3ccccc3)CC2)cc1 [Example III-29, N-(benzenesulfonyl)-1-(4-methylphenyl)cyclopropane-1-carboxamide]
17 | +++ (≥350) | 3 to 10 µM | ++^a | > 150% | – | – | – | – | – | COCCOc1ncc(C)cc1C1(C(=O)NS(=O)(=O)c2cccc3nc(C)ccc23)CC1 [GII-50, 1-[2-(2-methoxyethoxy)-5-methylpyridin-3-yl]-N-(2-methylquinoline-5-sulfonyl)cyclopropane-1-carboxamide]
18 | +++ (≥350) | > 10 µM | – | > 150% | 3 to 10 µM | – | – | – | – | CCc1cnc(N(C)C)c(C2(C(=O)NS(=O)(=O)c3cccc4ncccc34)CC2)c1 [GII-47, 1-[2-(dimethylamino)-5-ethylpyridin-3-yl]-N-(quinoline-5-sulfonyl)cyclopropane-1-carboxamide]
19 | – | – | – | – | – | > 10 µM | ++ (≥150 and <350) | > 10 µM | < 50% | Cc1ccccc1S(=O)(=O)NC(=O)C1(c2cccc(Cl)c2)CCCC1 [Example III-83, 1-(3-chlorophenyl)-N-(2-methylbenzene-1-sulfonyl)cyclopentane-1-carboxamide]
20 | ++ (≥150 and <350) | 3 to 10 µM | – | 50 to 150% | 3 to 10 µM | – | – | – | – | Cc1cnc(C2(C(=O)NS(=O)(=O)c3cccc4[nH]ccc34)CC2)c(C2CC2)c1 [GII-39, 1-(3-cyclopropyl-5-methylpyridin-2-yl)-N-(1H-indole-4-sulfonyl)cyclopropane-1-carboxamide]
